A short description of this series: Human HepG2 cell viability assay in 384 well format. The format is toxicity, cell-based. On the set-up: dose 125 nL, time 70.5 hour; concentration not given beside the values. As to conditions: HepG2 cells, read-out: Inhibition.

The structures appear in SMILES notation.

For `COCCNCc1ccc(OCC(=O)NC(C)(C)C)cc1`, the cytotoxicity at 70.5 h is 19.6%.

As for `CC(C(=O)N1CCN(c2ccc(F)cc2)CC1)n1cc(Br)cn1` (stereo not drawn), the cytotoxicity at 70.5 h is -8.98%.

Regarding `COCC(=O)Nc1cnn(COc2ccc(F)cc2Cl)c1`, the cytotoxicity at 70.5 h turned out to be 2.16%.

Take `CC(NC(=O)c1ccc(Cl)cc1)c1nnc(SCC(N)=O)n1C` (stereo not drawn): the cytotoxicity at 70.5 h was -8%.

With `Cn1cc(I)c(C(=O)NCCCn2cc(Br)cn2)n1`, the cytotoxicity at 70.5 h amounted to 0.223%.

`Cn1cc(Br)c(C(=O)NCCCn2cc(Br)cn2)n1`: the cytotoxicity at 70.5 h came out at 6.5%.

Take `CCn1ncc(CN2CCN(C(=O)Cn3cc(Br)c(C)n3)CC2)c1C`: the cytotoxicity at 70.5 h is -9.19%.

Regarding `Cc1nn(Cc2ccc(C(=O)NCCCN3CCCC3=O)o2)c(C)c1Cl`, the cytotoxicity at 70.5 h is -10.6%.

As to `Cc1cc(NC(=O)C(C)Cn2cc(Br)cn2)no1` (stereo not drawn), the cytotoxicity at 70.5 h came to 1.29%.

On to `CC(C)(C)NC(=O)c1ccn(COc2c(Cl)cccc2Cl)n1`, for which the cytotoxicity at 70.5 h was -0.674%.

`O=C(c1ccnn1COc1ccc(Cl)cc1)N1CCSCC1`: the cytotoxicity at 70.5 h is -11%.

Take `CS(=O)(=O)Nc1cnn(Cc2cccc(Cl)c2)c1`: the cytotoxicity at 70.5 h was -7.33%.

As to `COc1ccc(OC)c(C(C)NS(=O)(=O)c2cn(C)nc2C)c1` (stereo not drawn), the cytotoxicity at 70.5 h was -3.29%.

Turning to `CCn1cc(NS(=O)(=O)c2ccc(Br)s2)c(C(=O)NCC(C)C)n1`, the cytotoxicity at 70.5 h was -0.598%.

On to `Cc1nn(C)cc1-c1cc(C(F)F)nc2sc(C(N)=O)c(N)c12`, for which the cytotoxicity at 70.5 h came out at 7.12%.

Consider `Cc1c(Br)c(C(F)F)nn1C(C)C(=O)O` (stereo not drawn), for which the cytotoxicity at 70.5 h was -10.2%.

In the case of `COC(=O)c1ccn(COc2ccccc2Cl)n1`, the cytotoxicity at 70.5 h was -9.21%.

With `Cc1c(-c2cc(C(F)F)nc3sc(C(N)=O)c(N)c23)cnn1C`, the cytotoxicity at 70.5 h was -1.99%.

Consider `Cc1c(-c2cc(-c3cnn(C)c3C)n(CC(=O)NC3CC3)n2)cnn1C`, for which the cytotoxicity at 70.5 h amounted to 19.6%.

In the case of `COc1cc(NC(=O)NCC2CCCO2)cc(OC)c1` (stereo not drawn), the cytotoxicity at 70.5 h came to 16.9%.

`Cn1c(=O)n(C)c2nc(Br)c(CC(=O)c3ccccc3)n2c1=O`: the cytotoxicity at 70.5 h was -4.55%.

As for `Fc1ccccc1NCc1nc2n(n1)CCCCC2`, the cytotoxicity at 70.5 h was -19.3%.

As to `Cc1ccc(C)c(NCc2nc3n(n2)CCCCC3)c1`, the cytotoxicity at 70.5 h was -15.6%.

On to `CCOc1ccc(N2CCCN=C2NC(=O)c2ccc(Cl)cc2)cc1`, for which the cytotoxicity at 70.5 h was -1.22%.

Regarding `CN1CC(Oc2ccccc2)=NC(SCC(=O)Nc2ccccc2Cl)=N1`, the cytotoxicity at 70.5 h is 5.43%.

With `OC1=C2C(=Nc3n[nH]c(O)c3C2c2ccccc2Cl)CCC1` (stereo not drawn), the cytotoxicity at 70.5 h is 9.03%.

In the case of `CSc1nc(N)c2c(n1)N=C1COC(O)=C1C2c1cccc(O)c1` (stereo not drawn), the cytotoxicity at 70.5 h worked out at 0.964%.

With `Cc1cccc(NC(C)C(=O)Nc2nccs2)c1` (stereo not drawn), the cytotoxicity at 70.5 h was -14.6%.

Turning to `CC(=O)N1CCN(c2ncnc3cc4c(cc23)OCCO4)CC1`, the cytotoxicity at 70.5 h was -6.91%.

On to `CC(C)C(=O)N1CCN(c2ncnc3cc4c(cc23)OCCO4)CC1`, for which the cytotoxicity at 70.5 h was -1.97%.

For `Cc1nn(C)c2c(N3CCN(C(=O)C(C)C)CC3)ncnc12`, the cytotoxicity at 70.5 h is -5.46%.

As to `Cc1ccccc1C(=O)NC(C)c1cnn(C)c1` (stereo not drawn), the cytotoxicity at 70.5 h was 27.8%.

As to `CCn1cc(C(=O)N2CCOCC2)cn1`, the cytotoxicity at 70.5 h is -3.04%.

`CC(C)N1CCC(c2nccnc2Nc2cnccn2)CC1`: the cytotoxicity at 70.5 h was 17.9%.

`Cc1cncnc1C1CCN(CC(N)=O)CC1`: the cytotoxicity at 70.5 h was -4.96%.

`O=C(c1n[nH]c(=O)c2ccccc12)N1CCC(O)(CN2CCOCC2)C1` (stereo not drawn): the cytotoxicity at 70.5 h was determined as 14.5%.

Consider `Nc1cccc(C2CN(C(=O)CN3CCOCC3)CCO2)n1` (stereo not drawn), for which the cytotoxicity at 70.5 h was -4.5%.

`CO[C@H]1CN(S(=O)(=O)c2ccc(F)cc2)C[C@@]12CCCO2`: the cytotoxicity at 70.5 h came to 36.6%.

With `CCc1nnc(Nc2cc(C)nc(C3CCN(c4ccncn4)C3)n2)s1` (stereo not drawn), the cytotoxicity at 70.5 h came to 12.4%.

On to `O=C(NCCc1ccc(F)cc1)C1CN(C(=O)Cn2cncn2)C1`, for which the cytotoxicity at 70.5 h was -13.2%.

In the case of `CC(=O)N1CCOC(c2c(C(=O)NC(C)(C)C)sc3ccccc23)C1` (stereo not drawn), the cytotoxicity at 70.5 h was -13.1%.

For `Cc1nn(C)cc1NC(=O)CC1CCN(C(=O)Cc2ccccc2)CC1`, the cytotoxicity at 70.5 h is -4.98%.

Regarding `Cc1c[nH]nc1C1CCN(C(=O)C2CCC2)CC1`, the cytotoxicity at 70.5 h was -8.63%.

Take `CC(C)S(=O)(=O)N1C[C@@H](c2ccccc2)[C@H]2[C@H]1CCCCCN2C`: the cytotoxicity at 70.5 h is -5.45%.

In the case of `COc1ccc(-c2cc(C(=O)NCCn3ccnc3)n(C)n2)cc1`, the cytotoxicity at 70.5 h was found to be 19.2%.

As to `CNc1cc(C)nc(C2CCN(CCO)CC2)n1`, the cytotoxicity at 70.5 h is -6.23%.

For the compound `COCCN1CCN(c2nc(O)cc(Cc3ccccc3F)n2)CC1`, the cytotoxicity at 70.5 h is -5.81%.

With `O=C1CCC[C@]2(CN(S(=O)(=O)C3CCCCC3)C[C@H]2c2cccnc2)N1`, the cytotoxicity at 70.5 h was -3.41%.

For `CC(=O)N1CCC(c2cccc(-c3cccc(C(=O)O)c3)n2)CC1`, the cytotoxicity at 70.5 h is -0.201%.

For `CC(=O)N1CCC(c2cccc(Oc3ccccc3)n2)CC1`, the cytotoxicity at 70.5 h was -3.81%.

For `COCC(=O)N1CCC(c2cc(N(C)C)cc(C)n2)CC1`, the cytotoxicity at 70.5 h was 25.5%.

With `Cc1ccc(N2CCOC(C)(C(=O)N(C)C)C2)nn1` (stereo not drawn), the cytotoxicity at 70.5 h was -6.16%.

For the compound `Cc1nn(C)cc1NC(=O)CC1CCN(CCc2ccccc2)CC1`, the cytotoxicity at 70.5 h is -7.48%.

For the compound `Cc1cc(N2CCOC(C)(C(=O)N(C)C)C2)ncn1` (stereo not drawn), the cytotoxicity at 70.5 h was -6.62%.

As for `O=C(c1ccc(=O)[nH]n1)N1CCNCC1c1ccccc1` (stereo not drawn), the cytotoxicity at 70.5 h is -2.98%.

As to `NCc1cccc(-c2cccnc2C(=O)NCCCN2CCOCC2)c1`, the cytotoxicity at 70.5 h was -3.76%.

Turning to `CNc1nccnc1C1CN(Cc2ccc3[nH]ccc3c2)CCO1` (stereo not drawn), the cytotoxicity at 70.5 h is -2.11%.

Regarding `CC(C)(C)n1nnnc1CN(Cc1ccccc1)Cc1ccccc1Cl`, the cytotoxicity at 70.5 h was -5.12%.

As to `O=C(c1cc2c(s1)CCC2)N1CCC(c2ccncc2)CC1`, the cytotoxicity at 70.5 h turned out to be 15.8%.

For the compound `COCCNc1nnc(-c2ccccn2)s1`, the cytotoxicity at 70.5 h is -4.27%.

Turning to `COc1ncc(CN(C)C2CCN(C(C)C)CC2)cn1`, the cytotoxicity at 70.5 h was 8.08%.

With `c1cc(-c2cnc(NC3CC3)nc2[C@H]2CCCO2)ccn1`, the cytotoxicity at 70.5 h was -7.2%.

Take `c1cc(-c2cncc(C3CCNCC3)n2)n[nH]1`: the cytotoxicity at 70.5 h was -6.89%.

Take `CC(C)(C)C(=O)N1CCCC1c1nccnc1Cl` (stereo not drawn): the cytotoxicity at 70.5 h is -8.54%.

Turning to `O=C(NCc1ccccn1)c1cnc(C2CCCN2)cn1` (stereo not drawn), the cytotoxicity at 70.5 h was -4.69%.

As to `Cc1nccc(C2CCCN(C(=O)c3cncnc3)C2)n1` (stereo not drawn), the cytotoxicity at 70.5 h is -5.03%.

`CC(=O)N1CCCC(c2nccnc2-c2ccc(CO)cc2)C1` (stereo not drawn): the cytotoxicity at 70.5 h is -5.35%.

For `COCC(=O)N1CCN(C)C(=O)C(Cc2ccccc2-c2cccs2)C1` (stereo not drawn), the cytotoxicity at 70.5 h is 1.61%.

Regarding `Cc1cc(C2CCNCC2)nc(-c2ccsc2)n1`, the cytotoxicity at 70.5 h was -8.24%.

Regarding `CC(C)(C)C(=O)N1C[C@H](c2ccsc2)[C@H]2CN(C3CCCCC3)CC[C@H]21`, the cytotoxicity at 70.5 h is -3.27%.

As to `CNC(=O)c1cc(C2CCCNC2)n[nH]1` (stereo not drawn), the cytotoxicity at 70.5 h was determined as 21.1%.

As for `CNCC(=O)N1CCCC1c1n[nH]cc1-c1ccccc1F` (stereo not drawn), the cytotoxicity at 70.5 h amounted to 0.833%.

`Cc1cc(C)nc(C2CCCNC2)n1` (stereo not drawn): the cytotoxicity at 70.5 h was found to be 17.9%.

Values taken from ChEMBL document CHEMBL3507680, “University of Dundee, Gates Library screen for HepG2 cell viability”.
